Test results from the supplement of paper PMC13380429.

What was measured:
Details in all cases: 72 h
Vero E6 [1] = test: relative viability EC50 (midpoint between 100% and the lowest measured viability); higher = less toxic
U2OS [2] = test: as above
Calu-3 [3] = test: as above
HepG2 [4] = test: as above
Caco-2 [5] = test: drug sensitivity score (DSS) for viability; higher = more toxic; extreme values may be limits of the assay
Vero E6 [6] = test: as above
U2OS [7] = test: as above
Calu-3 [8] = test: as above
HepG2 [9] = test: as above
Caco-2 [10] = test: cell viability relative to DMSO; higher = less toxic
Vero E6 [11] = test: as above
U2OS [12] = test: as above
Calu-3 [13] = test: as above
HepG2 [14] = test: as above
Caco-2 [15] = test: relative viability EC50 (midpoint between 100% and the lowest measured viability); higher = less toxic

SMILES	relative viability EC50 (Vero E6 [1]) [µM]	relative viability EC50 (U2OS [2]) [µM]	relative viability EC50 (Calu-3 [3]) [µM]	relative viability EC50 (HepG2 [4]) [µM]	drug sensitivity score (Caco-2 [5])	drug sensitivity score (Vero E6 [6])	drug sensitivity score (U2OS [7])	drug sensitivity score (Calu-3 [8])	drug sensitivity score (HepG2 [9])	cell viability (Caco-2 [10]; 1 nM) [%]	cell viability (Caco-2 [10]; 10 nM) [%]	cell viability (Caco-2 [10]; 100 nM) [%]	cell viability (Caco-2 [10]; 1000 nM) [%]	cell viability (Caco-2 [10]; 10000 nM) [%]	cell viability (Vero E6 [11]; 1 nM) [%]	cell viability (Vero E6 [11]; 10 nM) [%]	cell viability (Vero E6 [11]; 100 nM) [%]	cell viability (Vero E6 [11]; 1000 nM) [%]	cell viability (Vero E6 [11]; 10000 nM) [%]	cell viability (U2OS [12]; 1 nM) [%]	cell viability (U2OS [12]; 10 nM) [%]	cell viability (U2OS [12]; 100 nM) [%]	cell viability (U2OS [12]; 1000 nM) [%]	cell viability (U2OS [12]; 10000 nM) [%]	cell viability (Calu-3 [13]; 1 nM) [%]	cell viability (Calu-3 [13]; 10 nM) [%]	cell viability (Calu-3 [13]; 100 nM) [%]	cell viability (Calu-3 [13]; 1000 nM) [%]	cell viability (Calu-3 [13]; 10000 nM) [%]	cell viability (HepG2 [14]; 1 nM) [%]	cell viability (HepG2 [14]; 10 nM) [%]	cell viability (HepG2 [14]; 100 nM) [%]	cell viability (HepG2 [14]; 1000 nM) [%]	cell viability (HepG2 [14]; 10000 nM) [%]	relative viability EC50 (Caco-2 [15]) [µM]
O=C1N[C@@H]2[C@@H](O)[C@@H](O)[C@H](O)[C@@H](CO)N2C1=O [kifunensine]	> 10	> 10	> 10	> 10	4.8	0.3	0	0	0.5	98.5	105	91.8	75.1	67.5	107	89.7	96.2	94.5	84.2	104	102	96.2	97.4	99	100	106	103	90.7	93	95.6	103	99.4	98.7	82.6	–
CN(Cc1cnc2nc(N)nc(N)c2n1)c1ccc(C(=O)N[C@@H](CCC(=O)O)C(=O)O)cc1 [methotrexate]	0.284	> 10	> 10	0.379	6.1	16.1	0	0	14	98.3	99.6	97.6	67.1	66	103	99.1	96.1	14.7	14.3	103	98.2	98	92.1	97.2	104	94.3	93.9	95.8	96.5	94.3	103	105	21.8	18.6	–
CC(=O)OC/C=C(C)/C=C/C=C(C)/C=C/C1=C(C)CCCC1(C)C [retinyl-acetate]	> 10	–	> 10	–	0	0	–	0	–	112	99	104	95.9	114	103	103	102	98	102	–	–	–	–	–	93.7	90.4	112	90.7	93.3	–	–	–	–	–	> 10
CC[C@H]1OC(=O)C[C@@H](O)[C@H](C)[C@@H](O[C@@H]2O[C@H](C)C[C@H](N(C)C)[C@H]2O)[C@@H](CC=O)C[C@@H](C)C(=O)/C=C/[C@]2(C)O[C@H]2[C@@H]1C [rosamicin]	> 10	3.09	> 10	3.41	1.2	0	3.5	0	3.7	94.6	102	101	100	71.5	94.7	102	92.9	97	90.9	100	94.2	98.8	99.4	37.1	101	84.5	101	107	87.2	87	106	98.4	103	28.9	–
COc1cc(C[C@@H](CO)[C@H](CO)Cc2ccc(O)c(OC)c2)ccc1O [secoisolariciresinol-(-)]	> 10	> 10	> 10	–	0	0	0	0	–	94.7	102	87.6	93	94.7	113	110	98.6	97.3	99.3	100	99.1	98.7	104	93.8	98.7	102	107	91.9	92.4	–	–	–	–	–	> 10
Cn1nnc(-c2ccc(-c3ccc(N4C[C@H](COP(=O)(O)O)OC4=O)cc3F)cn2)n1 [tedizolid-phosphate]	> 10	> 10	> 10	–	0.8	0.2	0	0.9	6.1	108	97.8	94.2	87.3	87.9	98.5	101	97.9	89.3	89.8	98.8	98.5	97.1	93.8	93.4	102	103	114	86.1	97.6	106	96.9	91	71.7	53.1	> 10
Cc1cc2cc3c(C)cc(=O)oc3c(C)c2o1 [trioxsalen]	> 10	> 10	> 10	–	1	0	0	0	2.9	111	99.6	91.3	92.4	80.5	97.4	96	99.5	97.5	96.3	103	105	101	106	99.6	105	96.3	106	120	108	104	88.8	94.7	86.1	65.8	> 10
